The test system of one experiment is Plasma TC. Nature of the experiment: in vivo screen designated APCC (high fat, high cholesterol diet, plasma cholesterol). More on the design: species or system male Sprague-Dawley rats. The conditions noted are these: dose 10 mg/kg, rats, PCC diet with 0.5% cholic acid overnight, vehicle CMC/Tween; for change in vivo at 10 mg/kg: Rattus norvegicus. From the text: In one in vivo screen designated APCC, male Sprague-Dawley rats (200 to 225 g) were randomly divided into treatment groups and dosed at 4 PM with either vehicle (CMC/Tween) or suspensions of compounds in vehicle. The normal chow diet was then replaced with a high fat, high cholesterol diet (designated PCC) containing 0.5% cholic acid. The rats consumed this diet ad libitum during the night and were sacrificed at 8 AM to obtain blood samples for cholesterol analysis using standard procedures. Statistical differences between mean cholesterol values for the same vehicle were determined using analysis of variance followed by Fisher's least significant test.

In experiment [1] the target is T1, acyl-CoA: cholesterol acyltransferase (ACAT) (Rattus norvegicus, UniProt Q7TQM4).
T1 construct: tissue preparation containing rat liver microsomes; from tissue; host or cells: rat liver microsomes
T1 sequence (Q7TQM4 1-524): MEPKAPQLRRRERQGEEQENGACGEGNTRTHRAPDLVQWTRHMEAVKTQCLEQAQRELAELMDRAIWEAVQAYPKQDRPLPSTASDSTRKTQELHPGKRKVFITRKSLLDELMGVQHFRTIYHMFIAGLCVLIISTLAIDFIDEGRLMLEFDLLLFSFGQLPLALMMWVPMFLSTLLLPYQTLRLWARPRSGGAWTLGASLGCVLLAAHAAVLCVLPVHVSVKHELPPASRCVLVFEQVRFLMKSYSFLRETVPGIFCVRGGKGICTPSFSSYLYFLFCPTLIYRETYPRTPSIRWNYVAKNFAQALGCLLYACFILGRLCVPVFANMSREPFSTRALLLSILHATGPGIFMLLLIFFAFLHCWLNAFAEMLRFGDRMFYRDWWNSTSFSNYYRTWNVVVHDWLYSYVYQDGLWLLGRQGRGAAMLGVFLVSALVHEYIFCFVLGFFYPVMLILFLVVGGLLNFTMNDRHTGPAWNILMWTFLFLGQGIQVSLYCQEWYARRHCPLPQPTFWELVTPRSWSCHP
The experiment can be described thus: In vitro inhibition of acylation of cholesterol by oleic acid (LAI), rat liver microsomes. It is filed as biochemical. As to conditions: radiolabeled oleic acid. On the procedure: The ability of representative compounds of the present invention to inhibit ACAT was measured using an in vitro test more fully described in Field F J, Salone R G, Biochemica et Biophysica 1982; 712:557-570. The test assesses the ability of a test compound to inhibit the acylation of cholesterol by oleic acid by measuring the amount of radiolabeled cholesterol oleate formed from radiolabeled oleic acid in a tissue preparation containing rat liver microsomes.

Structures can show the parent of a compound that is named as a salt.

For the compound `CC(C)c1cc(C(C)C)c(CC(=O)NS(=O)(=O)Oc2c(C(C)C)cc(NC(=O)[C@@H](C)N)cc2C(C)C)c(C(C)C)c1` [Example 11, (D)-[(2,4,6-Triisopropyl-phenyl)-acetyl]-sulfamic acid 4-(2-amino-propionylamino)-2,6-diisopropyl-phenyl ester trifluoroacetate(1:1) (salt)], the change in vivo at 10 mg/kg in the experiment with Plasma TC was -19%. Further, the IC50 (usually the concentration at which inhibition is half-maximal) in experiment [1] was greater than 50 µM.
As to `CC(C)c1cc(C(C)C)c(CC(=O)NS(=O)(=O)Oc2c(C(C)C)cc(NC(=O)[C@H](C)N)cc2C(C)C)c(C(C)C)c1` [Example 12, (L)-[(2,4,6-Triisopropyl-phenyl)-acetyl]-sulfamic acid 4-(2-amino-propionylamino)-2,6-diisopropyl-phenyl ester], the change in vivo at 10 mg/kg in the experiment with Plasma TC was -74%. Besides, in experiment [1], the IC50 was greater than 50 µM.
For `CC(C)c1cc(C(C)C)c(CC(=O)NS(=O)(=O)Oc2c(C(C)C)cc(NC(=O)C(C)(C)N)cc2C(C)C)c(C(C)C)c1` [Example 13, [(2,4,6-Triisopropyl-phenyl)-acetyl]-sulfamic acid 4-(2-amino-2-methyl-propionylamino)-2,6-diisopropyl-phenyl ester] the same measures were -8% and greater than 50 µM.
Consider `CC(C)c1cc(C(C)C)c(CC(=O)NS(=O)(=O)Oc2c(C(C)C)cc(OCCCN(C)C)cc2C(C)C)c(C(C)C)c1` [Example 14, [(2,4,6-Triisopropyl-phenyl)-acetyl]-sulfamic acid 4-(3-dimethylamino-propoxy)-2,6-diisopropyl-phenyl ester], for which the “APCC % Change in Plasma TC” value with Plasma TC was -11%. This compound also came in with an IC50 in experiment [1] greater than 50 µM.
For the compound `CC(C)c1cc(C(C)C)c(CC(=O)NS(=O)(=O)Oc2c(C(C)C)cc(OCCCN)cc2C(C)C)c(C(C)C)c1` [Example 16, [(2,4,6-Triisopropyl-phenyl)-acetyl]-sulfamic acid 4-(3-amino-propoxy)-2,6-diisopropyl-phenyl ester hydrochloride salt], in the experiment with Plasma TC, the change in vivo at 10 mg/kg is -47%. This compound registered a 50% inhibitory concentration (IC50) in experiment [1] greater than 50 µM.
With `CC(C)c1cc(C(C)C)c(CC(=O)NS(=O)(=O)Oc2c(C(C)C)cc(SC#N)cc2C(C)C)c(C(C)C)c1` [Example 17, [(2,4,6-Triisopropyl-phenyl)-acetyl]-sulfamic acid 2,6-diisopropyl-4-thiocyanato-phenyl ester], the change in vivo at 10 mg/kg in the experiment on Plasma TC was -46%. The IC50 in experiment [1] came out at 29 µM.
`CC(C)c1cc(C(C)C)c(CC(=O)NS(=O)(=O)Oc2c(C(C)C)cc(C#N)cc2C(C)C)c(C(C)C)c1` [Example 18, [(2,4,6-Triisopropyl-phenyl)-acetyl]-sulfamic acid 4-cyano-2,6-diisopropyl-phenyl ester]: the change in vivo at 10 mg/kg in the experiment with Plasma TC was -38%. The compound further returned an IC50 in experiment [1] greater than 50 µM.
As to `CC(C)c1cc(C(C)C)c(CC(=O)NS(=O)(=O)Oc2c(C(C)C)cc(CNC(=O)CN)cc2C(C)C)c(C(C)C)c1` [Example 19, [(2,4,6-Triisopropyl-phenyl)-acetyl]-sulfamic acid 4-[(2-amino-acetylamino)-methyl]-2,6-diisopropyl-phenyl ester], the change in vivo at 10 mg/kg in the experiment with Plasma TC was -16%. Also, in experiment [1], the IC50 was greater than 50 µM.
Regarding `CC(C)c1cc(C(C)C)c(CC(=O)NS(=O)(=O)Oc2c(C(C)C)cc(C=O)cc2C(C)C)c(C(C)C)c1` [Example 20, [(2,4,6-Triisopropyl-phenyl)-acetyl]-sulfamic acid 4-formyl-2,6-diisopropyl-phenyl ester], the change in vivo at 10 mg/kg in the experiment with Plasma TC is -44%. In addition, 43.2 µM corresponded to half-maximal inhibition in experiment [1] (IC50).
For `CC(C)c1cc(C(C)C)c(CC(=O)NS(=O)(=O)Oc2c(C(C)C)cc(C=CC#N)cc2C(C)C)c(C(C)C)c1` [Example 21, [(2,4,6-Triisopropyl-phenyl)-acetyl]-sulfamic acid 4-(2-cyano-vinyl)-2,6-diisopropyl-phenyl ester] the same measures were -35% and 44.6 µM.
On to `CC(C)c1cc(C(C)C)c(CC(=O)NS(=O)(=O)Oc2c(C(C)C)cc(CNCc3ccccc3)cc2C(C)C)c(C(C)C)c1` [Example 22, [(2,4,6-Triisopropyl-phenyl)-acetyl]-sulfamic acid 4-(benzylamino-methyl)-2,6-diisopropyl-phenyl ester mono hydrochloride], for which the change in vivo at 10 mg/kg in the experiment with Plasma TC is -18%. In addition, the half-maximal inhibitory concentration (IC50) in experiment [1] was determined as 22.8 µM.
As to `CC(C)c1cc(C(C)C)c(CC(=O)NS(=O)(=O)Oc2c(C(C)C)cc(CN3CCN(C)CC3)cc2C(C)C)c(C(C)C)c1` [Example 23, [(2,4,6-Triisopropyl-phenyl)-acetyl]-sulfamic acid 2,6-diisopropyl-4-(4-methyl-piperazin-1-ylmethyl)-phenyl ester, dihydrochloride], in the experiment on Plasma TC, the change in vivo at 10 mg/kg turned out to be 5%. Inhibition in experiment [1] was half-maximal at 50 µM (IC50).
As to `CC(C)c1cc(C(C)C)c(CC(=O)NS(=O)(=O)Oc2c(C(C)C)cc(C(N)=O)cc2C(C)C)c(C(C)C)c1` [Example 24, [(2,4,6-Triisopropyl-phenyl)-acetyl]-sulfamic acid 4-carbamoyl-2,6-diisopropyl-phenyl ester], the change in vivo at 10 mg/kg in the experiment with Plasma TC was -5%. The compound further had an IC50 in experiment [1] of 43.8 µM.
In the case of `CC(C)c1cc(C(C)C)c(CC(=O)NS(=O)(=O)Oc2c(C(C)C)cc(CO)cc2C(C)C)c(C(C)C)c1` [Example 25, [(2,4,6-Triisopropyl-phenyl)-acetyl]-sulfamic acid 4-hydroxymethyl-2,6-diisopropyl-phenyl ester], the change in vivo at 10 mg/kg in the experiment on Plasma TC was -54%. The compound further gave an IC50 in experiment [1] of 38.5 µM.
As for `CC(=O)Nc1cc(C(C)C)c(OS(=O)(=O)NC(=O)Cc2c(C(C)C)cc(C(C)C)cc2C(C)C)c(C(C)C)c1` [Example 26], in the experiment on Plasma TC, the change in vivo at 10 mg/kg was -44%. In experiment [1], this compound gave a concentration for half-maximal inhibition (IC50) of 30 µM.
For `CC(C)c1cc(C(C)C)c(CC(=O)NS(=O)(=O)Oc2c(C(C)C)cc(N(CCO)CCO)cc2C(C)C)c(C(C)C)c1` [Example 28, [(2,4,6-Triisopropyl-phenyl)-acetyl]-sulfamic acid 4-[bis-(2-hydroxy-ethyl)-amino]-2,6-diisopropyl-phenyl ester], the change in vivo at 10 mg/kg in the experiment with Plasma TC is -48%. For the same compound, in experiment [1], half-maximal inhibition (IC50) required 43.8 µM.
As for `CC(C)c1cc(C(C)C)c(CC(=O)NS(=O)(=O)Oc2c(C(C)C)cc(NC(=O)Nc3c(C(C)C)cccc3C(C)C)cc2C(C)C)c(C(C)C)c1` [Example 29], the change in vivo at 10 mg/kg in the experiment with Plasma TC was -3%. In addition, the midpoint of inhibition in experiment [1], the IC50, lay at 33 µM.
In the case of `CC(C)c1cc(C(C)C)c(CC(=O)NS(=O)(=O)Oc2c(C(C)C)cc(NC(=O)Nc3ccccc3)cc2C(C)C)c(C(C)C)c1` [Example 30], the change in vivo at 10 mg/kg in the experiment on Plasma TC is -30%. In addition, in experiment [1], 20.3 µM corresponded to half-maximal inhibition (IC50).
Consider `CC(C)c1cc(C(C)C)c(CC(=O)NS(=O)(=O)Oc2c(C(C)C)cc(NC(=S)Nc3ccccc3)cc2C(C)C)c(C(C)C)c1` [Example 31], for which the change in vivo at 10 mg/kg with Plasma TC is -21%. The compound further came in with an IC50 in experiment [1] of 37.4 µM.
In the case of `CC(C)c1cc(C(C)C)c(CC(=O)NS(=O)(=O)Oc2c(C(C)C)cc(NS(=O)(=O)c3cccs3)cc2C(C)C)c(C(C)C)c1` [Example 32, [(2,4,6-Triisopropyl-phenyl)-acetyl]-sulfamic acid 2,6-diisopropyl-4-(thiophene-2-sulfonyamino)-phenyl ester], in the experiment on Plasma TC, the change in vivo at 10 mg/kg was -60%. In experiment [1], the IC50 was found to be 31.1 µM.
Regarding `CC(C)c1cc(C(C)C)c(CC(=O)NS(=O)(=O)Oc2c(C(C)C)cc(NS(=O)(=O)c3cccc4c(N(C)C)cccc34)cc2C(C)C)c(C(C)C)c1` [Example 33, [(2,4,6-Triisopropyl-phenyl)-acetyl]-sulfamic acid 4-(5 dimethylamino-naphthalene-1-sulfonylamino)-2,6-diisopropyl-phenyl ester], the change in vivo at 10 mg/kg with Plasma TC is -61%. The compound also showed an IC50 in experiment [1] of 10.6 µM.
Consider `CC(C)c1cc(C(C)C)c(CC(=O)NS(=O)(=O)Oc2c(C(C)C)cc(NS(C)(=O)=O)cc2C(C)C)c(C(C)C)c1` [Example 34, [(2,4,6-Triisopropyl-phenyl)-acetyl]-sulfamic acid 2,6-diisopropyl-4methanesulfonylamino-phenyl ester], for which, in the experiment on Plasma TC, the change in vivo at 10 mg/kg was -13%. The 50% inhibitory concentration (IC50) in experiment [1] was determined as 45 µM.
For `CCOC(=O)CCCCCc1cc(C(C)C)c(OS(=O)(=O)NC(=O)Cc2c(C(C)C)cc(C(C)C)cc2C(C)C)c(C(C)C)c1` [Example 36, 6-(3,5-Diisopropyl-4-{[(2,4,6-triisopropyl-phenyl)-acetyl]sulfamoyloxy}-phenyl)-hexanoic acid ethyl ester], the change in vivo at 10 mg/kg in the experiment with Plasma TC is -17%. The same compound came in with an IC50 in experiment [1] of 19 µM.
For `CC(C)c1cc(C(C)C)c(CC(=O)NS(=O)(=O)Oc2c(C(C)C)cc(CCCCCC(=O)O)cc2C(C)C)c(C(C)C)c1` [Example 37] the same measures were -47% and greater than 50 µM.

The values above are taken from US6093744A, “N-acyl sulfamic acid esters useful as hypocholesterolemic agents” (Warner-Lambert Company, priority 1998, dated 2000).
